Literature values in patent US8114298B2, “Method, device and system for water treatment” (Bromine Compounds Ltd., priority 2006, dated 2012).

How the values were obtained:
[1] = bleach; background statement
[2] = at 25° C.

SMILES: OCl [Sodium Hypochlorite]
- shelf life [1]: 3-6 months

SMILES: O=c1nc([O-])n(Cl)c(=O)n1Cl.[Na+] [NaDCC, sodium dichloroisocyanurate]
- solubility in water [2]: up to 24%
